Experimental data reported in ChEMBL document CHEMBL1629688, “A collection of caged compounds for probing roles of local translation in neurobiology” (Bioorg Med Chem, 2010).
Active and inactive are the calls of the source. The rule behind the calls is not given here.

System: Ribosome
Assay: Inhibition of ribosome peptidyl transferase site in rabbit reticulocytes assessed as inhibition of translation using firefly luciferase DNA as template at 0.8 to 80 uM after 1 hr by luciferase assay
Format: subcellular
Conditions: Oryctolagus cuniculus

- inhibition: Active
Compound: CCN(CC)c1ccc2c(COC(=O)N3C[C@@H](O)[C@H](OC(C)=O)[C@@H]3Cc3ccc(OC)cc3)cc(=O)oc2c1
